# Measurements published in US20250073208A1, “IL-6 AND/OR IL-1BETA INHIBITOR” (AGC INC., priority 2022, published 2025).
# Columns and labels:
# [1] = test system: rats with monocrotaline-induced pulmonary hypertension; assay: Monocrotaline (MCT)-induced pulmonary hypertension rat model: haemodynamics and right ventricular hypertrophy; type: in vivo; settings: 3 weeks
# Procedure: According to the method described in Abe K, Circ Res, 94: 385-393, 2004, a monocrotaline (MCT)-induced pulmonary hypertension rat model was prepared. Monocrotaline (manufactured by Sigma Ltd. Aldrich) was subcutaneously injected once at a dose of 60 mg/kg to 5- to 6-week-old (body weight 150-200 g) male Sprague Dawley rats (SD rat). The compound of the present invention (KAG-308) was orally administered using a gavage needle at a dose of 1 mg/kg (2 mg/kg/day) twice daily from the day of subcutaneous injection of monocrotaline until the day before measurement (“MCT+KAG-308” in FIG. 1). The same amount of solvent (water for injection) was administered for the same period to the pulmonary hypertension rat model not treated with KAG-308 (“MCT” in FIG. 1). The normal control group, which was not administered monocrotaline and KAG-308, was of the same age (“Normal” in FIG. 1). Three weeks after monocrotaline injection, right ventricular systolic pressure, systemic arterial pressure, heart rate number, and right-to-left ventricular weight ratio (right ventricular hypertrophy) were measured. Under isoflurane inhalation anesthesia, right ventricular systolic pressure was measured by the right heart catheterization method. Using a conductance catheter, systemic arterial pressure and heart rate were measured from the carotid artery. After the measurement, the rats were euthanized with a lethal dose of intravenous pentobarbital, and the hearts were excised. The weight of the left ventricle (LV) including the ventricular septum (Sep) relative to the right ventricle (RV) was measured, and the ratio was used as an index of right ventricular hypertrophy.
# [2] = test system: rats with monocrotaline-induced pulmonary hypertension; assay: Pulmonary histopathological analysis in the monocrotaline-induced pulmonary hypertension rat model; type: in vivo, rat (male Sprague Dawley); settings: 2 mg/kg/day, 3 weeks
# Procedure: According to the method described in Abe K, Circ Res, 94: 385-393, 2004, a monocrotaline (MCT)-induced pulmonary hypertension rat model was prepared. Monocrotaline (manufactured by Sigma Ltd. Aldrich) was subcutaneously injected once at a dose of 60 mg/kg to 5- to 6-week-old (body weight 150-200 g) male Sprague Dawley rats (SD rat). The compound of the present invention (KAG-308) was orally administered using a gavage needle at a dose of 1 mg/kg (2 mg/kg/day) twice daily from the day of subcutaneous injection of monocrotaline until the day before measurement (“MCT+KAG-308” in FIG. 1). The same amount of solvent (water for injection) was administered for the same period to the pulmonary hypertension rat model not treated with KAG-308 (“MCT” in FIG. 1). The normal control group, which was not administered monocrotaline and KAG-308, was of the same age (“Normal” in FIG. 1). Three weeks after monocrotaline injection, right ventricular systolic pressure, systemic arterial pressure, heart rate number, and right-to-left ventricular weight ratio (right ventricular hypertrophy) were measured. Under isoflurane inhalation anesthesia, right ventricular systolic pressure was measured by the right heart catheterization method. Using a conductance catheter, systemic arterial pressure and heart rate were measured from the carotid artery. After the measurement, the rats were euthanized with a lethal dose of intravenous pentobarbital, and the hearts were excised. The weight of the left ventricle (LV) including the ventricular septum (Sep) relative to the right ventricle (RV) was measured, and the ratio was used as an index of right ventricular hypertrophy. […]
# Pulmonary arteries with an outer diameter of 50 to 100 μm were analyzed, and the mean medial wall thickness was measured in a blind manner (mean medial wall thickness=(outer diameter−inner diameter)/outer diameter).
# Muscularization of small pulmonary arteries with an outer diameter of 50 μm or less was analyzed by immunostaining with anti-α-SMA (smooth muscular actin) antibody. According to the percentage of smooth muscle in the total circumference of the small pulmonary artery, they were defined as Non muscular (<25%), Partially muscular (25-75%), and Totally muscular (>75%), and at least 70 small pulmonary arteries of each specimen were evaluated in a blinded method.
# Macrophages were measured by immunostaining using anti-CD68 antibody. The device used was a laser scanning microscope FV1200 IX83 (OLYMPUS), and observation was performed at a magnification of 400×, and CD68-positive cells were counted in 15 randomly selected fields mainly of small blood vessels.
# [3] = test system: IL-6 mRNA; assay: Quantitative RT-PCR analysis of IL-6 mRNA in whole lung of monocrotaline-induced pulmonary hypertension rats; type: in vivo, rat (male Sprague Dawley); settings: 2 mg/kg/day, 3 weeks, FIG. 7 left
# [4] = test system: IL-1β mRNA; assay: Quantitative RT-PCR analysis of IL-1β mRNA in whole lung of monocrotaline-induced pulmonary hypertension rats; type: in vivo, rat (male Sprague Dawley); settings: 2 mg/kg/day, 3 weeks, FIG. 7 right, result in words
smiles,measurement,setting,value
"Cc1cccc([C@@H](C)[C@H](O)/C=C/[C@@H]2[C@@H]3[C@H](C[C@H]2O)O/C(=C\CCCc2nnn[nH]2)C3(F)F)c1 [KAG-308, 4-[(Z)-(1S,5R,6R,7R)-6-[(1E,3R,4R)-3-hydroxy-4-(m-tolyl)-1-pentenyl]-7-hydroxy-2-oxa-4,4-difluoro-bicyclo[3.3.0]octan-3-ylidene]-1-(tetrazol-5-yl)butane]",increase in right ventricular systolic pressure (RVSP),"[1]; 1 mg/kg orally twice daily (2 mg/kg/day), FIG. 2 left",significantly suppressed
same,increase in weight ratio RV/LV+Sep (right ventricular hypertrophy),"[1]; 1 mg/kg orally twice daily (2 mg/kg/day), FIG. 2 right",significantly suppressed
same,left ventricular systolic pressure,"[1]; 2 mg/kg/day orally, FIG. 3 left",without affecting
same,heart rate,"[1]; 2 mg/kg/day orally, FIG. 3 right",without affecting
same,increase in infiltration of inflammatory CD68-positive macrophages,"[2]; lung, anti-CD68 immunostaining, 15 fields at 400×, FIG. 6",significantly suppressed
same,increase in average medial wall thickness of pulmonary artery,"[2]; pulmonary arteries of outer diameter 50 to 100 μm, EVG staining, FIG. 4",significantly suppressed
same,non-muscular percentage of small pulmonary arteries,"[2]; small pulmonary arteries of outer diameter 50 μm or less, anti-α-SMA immunostaining, non muscular <25%, FIG. 5",increased
same,totally muscular percentage of small pulmonary arteries,"[2]; small pulmonary arteries of outer diameter 50 μm or less, anti-α-SMA immunostaining, totally muscular >75%, FIG. 5",decreased
same,suppression of the increase in mRNA expression level of IL-6,[3],89%
same,increase in mRNA expression level of IL-6,[3]; result in words,significantly suppressed
same,increase in mRNA expression level of IL-1β,[4],significantly suppressed
